Data reported in PMC12956279 (2026).

What was measured:
Experiment in all cases: in-gel dye staining after TBE-urea PAGE
Conditions in all cases: 100 mM KCl, 1 mM MgCl2; 40 mM HEPES pH 7.5, 10 µM dye; very low fluorescence
[1] = system: 4LE-v1 (DNA, aptamer) TCCTTCGCACAGCACATAGTAGGGATGATGCGGCAGTGGGCTTCGCAGAACAGTGTTTATTCTGCGAGGGGACTACCTGCCGTATAGCTCTGAATCAAGGATTTTAGGGAGGCGATTCCTCCTGCC
[2] = system: 4LE-v2 (DNA, aptamer) TCCTTCGCACAGCACACCTGCCGTATTAGTAGGGATGATGCGGCAGTGGGCTTCGCAGAACAGTGTTTATTCTGCGAGGGGACTAAGCTCTGAATCAAGGATTTTAGGGAGGCGATTCCTCCTGCC
[3] = system: 4LE-v3 (DNA, aptamer) TCCTTCGCACAGCACACCTGCCGTATAGCTCTGAATCAATAGTAGGGATGATGCGGCAGTGGGCTTCGCAGAACAGTGTTTATTCTGCGAGGGGACTAGGATTTTAGGGAGGCGATTCCTCCTGCC

Measured: binding

CC1=N/C(=C\c2cc(F)c(O)c(F)c2)C(=O)N1CC(F)(F)F
weak: [1] | [2] | [3]
